Structures are written as SMILES.

Results on 2 compounds are retold here after publication PMC6278385, “Preclinical Pharmacokinetics of C118P, a Novel Prodrug of Microtubules Inhibitor and Its Metabolite C118 in Mice, Rats, and Dogs” (Molecules, 2018).

This data set can be described thus: Tissue distribution in tumor bearing mice. Format: in vivo, nude mice (BALB/cA) implanted with NCI-H460 tumor. To be noted: n=4. Here is the method: The nude mice (BALB/cA) implanted with NCI-H460 tumor were provided by Shanghai Institute of Materia Medica. A total of 36 mice were divided into 9 groups with four animals in each group. After fasting overnight with free access to water, the mice were treated with 75 mg/kg C118P by i.v. The blood samples were collected at 2, 10, 20, 40 min, 1, 2, 4, 8, 12 h after treatment and the mice were anaesthetized and decapitated to obtain the blood and tumor tissue. Blood, brain, muscle, ovary, and lung from mice in the PK study were collected at 10 min, 1, 4, and 12 h. Tissues were cleaned by absorbent filter paper to remove the blood. Bloods were centrifuged at 10,000× g for 5 min. Each tissue (0.2 g) was homogenized with 2 mL water. The plasma samples and the homogenates were then processed and determined by the method described above. The concentration was determined by the calibration curve and the actual concentration was corrected by multiplying by 10 according to the dilution times. […]
4. The distribution of CA4P and CA4 in tumor bearing mice.
The nude mice (BALB/cA) implanted with NCI-H460 tumor were provided by Shanghai institute of Materia Medica. A total of 36 mice were divided into 9 groups with 4 animals in each group.
After fasted overnight with free access to water, the mice were treated with 75 mg/kg CA4P by i.v.
The blood samples were collected at 2, 10, 20, 40 min, 1, 2, 4, 8, 12 h after treatment and the mice were anaesthetized and decapitated to obtain the blood and tumor tissue. All procedure are same as C118P in the main text. The concentration was determined by the calibration curve and the actual concentration was corrected by multiplying by 10 according to the dilution times.

Setting [1] is: 0.17 h after i.v. 75 mg/kg of CA4P.
Setting [2] is: 1 h after i.v. 75 mg/kg of CA4P.
[3] abbreviates: 4 h after i.v. 75 mg/kg of CA4P.
Where [4] appears, read: 12 h after i.v. 75 mg/kg of CA4P.

As to `COc1ccc(/C=C\c2cc(OC)c(OC)c(OC)c2)cc1O` [CA4, Combretastain A4, reference compound], under setting [1], the concentration in Lung is 5849.0±580.7, the “concentration in Plasma” value came out at 12540.3±972.6, the “concentration in Tumor” value was found to be 9835.7±1345.9 and the concentration in brain was 16165.3±1211.9. Further, under setting [1], the concentration in muscle is listed as 8526.1±3505.7 and the concentration in ovary stood at 44183.5±13169.9. Further, under setting [2], the concentration in Lung is listed as 759.4±242.6, the “concentration in Plasma” value turned out to be 595.8±277.7, the “concentration in Tumor” value is listed as 4803.9±770.6 and the concentration in brain came to 2135.9±486.2. For the same compound, under setting [2], the concentration in muscle was determined as 595.6±308.4 and the concentration in ovary was determined as 1288.3±711.2. Besides, under setting [3], the concentration in Lung is 106.8±12.1, the “concentration in Plasma” value came out at 21.1±4.5, the “concentration in Tumor” value is given as 3677.0±1079.9 and the concentration in brain is listed as 97.6±21.3. For the same compound, the concentration in muscle under setting [3] was found to be 142.0±33.9. Also, under setting [4], the “concentration in Tumor” value amounted to 735.1±426.2 and the concentration in muscle amounted to 51.9±36.8.

`COc1ccc(/C=C\c2cc(OC)c(OC)c(OC)c2)cc1OP(=O)([O-])[O-].[Na+].[Na+]` [CA4P, CA4 phosphate, reference compound]: the “concentration in Plasma” value under setting [1] was determined as 15879.9±4473.5, the “concentration in Plasma” value under setting [2] was 324.9±105.2, the “concentration in Plasma” value under setting [3] is 15.0±6.8 and the “concentration in Plasma” value under setting [4] was 12.6±3.3. The “concentration in Tumor” value is 142.8±49.2 under setting [1], 26.5±1.4 under setting [2] and 34.5±1.9 under setting [3]. This compound also came in with a concentration in muscle under setting [1] of 345.2±68.9.
